# Reference: patent US12122783B2, “Stable salt of 5,10-methylene-(6R)-tetrahydrofolic acid” (MERCK & CIE, priority 2013, dated 2024)
# Counter-ions that a name gives are not always drawn.
# Experiments:
# [1] = Suspension equilibration stability in solvents and mixtures; assay type: physicochemical
# Source text: • (a) Suspension equilibration of (6R)-5,10-CH2-THF hemisulfate salt as starting material at temperatures other than room temperature in a variety of solvents and mixture are summarized in Table 10: […]
# [2] = Stability at high temperature/low pressure (XRPD); assay type: physicochemical; conditions: drying chamber 65 °C, 8 mbar, 21 h
# Procedure: Powder X-Ray Diffraction (Bruker D8 Advance): Copper Kα radiation, 40 kV/40 mA, LynxEye detector, Bragg-Brentano reflection geometry, 0.02° 2θ step size, 37 s step time, 2.5-50° 2θ range. Powder samples were measured in 0.1-mm or 0.5-mm deep silicon single-crystal sample holders. No special treatment was used in preparing the samples other than the application of slight pressure to get a flat surface. An ambient air atmosphere was used for all measurements, and the samples were rotated during the measurement. Absent any information to the contrary X-Ray Diffraction data is shown as reflection data.
# (6R)-5,10-CH2-THF hemisulfate salt (3.01 g) was dispersed in 100 ml 85% EtOH at room temperature and stirred for 5 h, then filtered and dried at 30° C. and 8 mbar for 12 hours (over night).
# (6R)-5,10-CH2-THF hemisulfate salt (2.17 g) was placed in a drying chamber at 65° C. and 8 mbar for 21 h.
# [3] = Long-term stability of hemisulfate salt stored in air, content by HPLC; assay type: physicochemical; conditions: for (6R)-5,10-CH2-THF hemisulfate remaining: solid, air, 25 °C/60% relative humidity
# Procedure: In order to determine the long-term stabilities of (6R)-5,10-CH2-THF hemisulfate salt, the compounds of the invention were stored in air at 25° C. and at 60% relative humidity. The content of (6R)-5,10-CH2-THF hemisulfate salt remaining was measured by HPLC at periodic intervals and is given by comparison with the initial value (% rel.).
# [4] = Comparative long-term stability of sulfate salt, content by HPLC; assay type: physicochemical; conditions: comparison of Tables 13 and 14 with Example 3
# Procedure: In order to compare the long-term stabilities of (6R)-5,10-CH2-THF hemisulfate salt, the compounds of the invention, to the long-term stabilities of (6R)-5,10-CH2-THF sulfate salt prepared according to EP 0 537 492 B1, stability data for (6R)-5,10-CH2-THF sulfate salt has been generated at various temperatures and humidities. • (a) Stability of (6R)-5,10-CH2-THF sulfate
# (6R)-5,10-CH2-THF sulfate salt was prepared according to literature procedures (EP 0 537 492 B1) and stored for 15 month at −20° C. Subsequently, samples of the product were stored at 5° C. resp. at 25° C. and 60% relative humidity resp. at 40° C. and 75% relative humidity. The content of (6R)-5,10-CH2-THF sulfate salt remaining in the sample was measured by HPLC at periodic intervals. The content of (6R)-5,10-CH2-THF sulfate was compared to the initial value at the time of preparation (% rel.).
# rats = conditions: rat, in vivo, 100 mg/kg/day
# dogs = conditions: dog, in vivo, 50 mg/kg/day
# patients = experiment: Clinical safety data in patients; assay type: in vivo; conditions: doses of up to 200 mg/m^2
# [5] = TG-FTIR thermogram under N2 flow; assay type: physicochemical; conditions: 10 K min^−1
# Procedure: TG-FTIR (Netzsch Thermo-Microbalance TG 209 with Bruker FT-IR Spectrometer IFS 28): Al crucible (with microhole); N2 atmosphere; 10 K min^−1 heating rate; 25° C. to 300° C. range.
# • (a) The FT Raman spectrum of (6R)-5,10-CH2-THF hemisulfate salt, recorded using a nominal laser power level of 300 mW and 64 scans is shown in FIG. 1. • (b) The corresponding powder X-ray diffractogram, recorded in transmission mode, is shown in FIG. 2. • (c) The TG-FTIR thermogram of (6R)-5,10-CH2-THF hemisulfate salt is shown in FIG. 3. It was carried out under N2 flow (to avoid oxidative degradation). […] Prior to the first heating scan, the sample was equilibrated for three minutes under gaseous nitrogen flow and lost 0.6 wt.-% of its mass during that time. This is consistent with the water content observed in the TG-FTIR thermogram (see FIG. 3) and confirms that this water is loosely bound. The sample was subsequently heated in a closed gold crucible to 254° C. at 10 K min^−1, quench cooled to −50° C., and heated a second time at 10 K min^−1. […] No other thermal events were observed up to 250° C. • (e) The IR spectrum was recorded in a pressed KBr pellet and the characteristic absorption bands are shown in Table 3. • (f) The ^1H NMR spectrum of (6R)-5,10-CH2-THF hemisulfate salt was recorded in DMSO-d6 and the chemical shifts (d) in ppm are shown in Table 8.
compound,measurement,setting,value
"Nc1nc2c(c(=O)[nH]1)N1CN(c3ccc(C(=O)N[C@@H](CCC(=O)O)C(=O)O)cc3)C[C@H]1CN2 [(6R)-5,10-CH2-THF hemisulfate salt, 5,10-methylene-(6R)-tetrahydrofolic acid]",Observation (suspension equilibration),"[1]; 2-PrOH with ~2 mM L-ascorbic acid, 40 °C, 3 d",No change
same,Observation (suspension equilibration),"[1]; AcOH saturated with L-ascorbic acid, 50 °C, 1 d",No change
same,Observation (suspension equilibration),"[1]; AcOH saturated with L-ascorbic acid, 50 °C, 5 d",No change
same,Observation (suspension equilibration),"[1]; H2O, 5 °C, 6 d",No change
same,Observation (suspension equilibration),"[1]; MeCN saturated with L-ascorbic acid, 50 °C, 5 d",No change
same,Observation (suspension equilibration),"[1]; MeOH/formic acid 1:1, 50 °C, 2 h",No change
same,Observation (suspension equilibration),"[1]; PEG4500/EtOH 1:9 saturated with L-ascorbic acid, 50 °C, 7 d",No change
same,Observation (suspension equilibration),"[1]; THF with ~2 mM L-ascorbic acid, 40 °C, 3 d",No change
same,Observation (suspension equilibration),"[1]; formic acid/THF 1:3, 10-20 °C, 6 d",No change
same,X-ray pattern distinctive for crystal form Type 1,[2],remained unchanged
same,Stability over a long period of time (conclusion from Table 11),"[3]; room temperature, pure compound",highly stable
same,"(6R)-5,10-CH2-THF hemisulfate remaining",[3]; 0 months,100.0 % rel.
same,"(6R)-5,10-CH2-THF hemisulfate remaining","[3]; 3 months, listed as (6R)-5,10-CH2-THF hemisulfate (batch 1)",99.7 % rel.
same,"(6R)-5,10-CH2-THF hemisulfate remaining","[3]; 3 months, listed as (6R)-5,10-CH2-THF hemisulfate (batch 2)",99.9 % rel.
same,"(6R)-5,10-CH2-THF hemisulfate remaining","[3]; 3 months, listed as (6R)-5,10-CH2-THF hemisulfate (batch 3)",99.5 % rel.
same,"(6R)-5,10-CH2-THF hemisulfate remaining",[3]; 6 months,99.5 % rel.
same,"(6R)-5,10-CH2-THF hemisulfate remaining","[3]; 6 months, listed as (6R)-5,10-CH2-THF hemisulfate (batch 2)",99.9 % rel.
same,"(6R)-5,10-CH2-THF hemisulfate remaining","[3]; 9 months, listed as (6R)-5,10-CH2-THF hemisulfate (batch 1)",99.6 % rel.
same,"(6R)-5,10-CH2-THF hemisulfate remaining","[3]; 9 months, listed as (6R)-5,10-CH2-THF hemisulfate (batch 2)",100.0 % rel.
same,"(6R)-5,10-CH2-THF hemisulfate remaining","[3]; 9 months, listed as (6R)-5,10-CH2-THF hemisulfate (batch 3)",99.4 % rel.
same,"(6R)-5,10-CH2-THF hemisulfate remaining","[3]; 12 months, listed as (6R)-5,10-CH2-THF hemisulfate (batch 1)",99.2 % rel.
same,"(6R)-5,10-CH2-THF hemisulfate remaining","[3]; 12 months, listed as (6R)-5,10-CH2-THF hemisulfate (batch 2)",99.7 % rel.
same,"(6R)-5,10-CH2-THF hemisulfate remaining","[3]; 12 months, listed as (6R)-5,10-CH2-THF hemisulfate (batch 3)",99.1 % rel.
same,"(6R)-5,10-CH2-THF hemisulfate remaining","[3]; 18 months, listed as (6R)-5,10-CH2-THF hemisulfate (batch 1)",99.2 % rel.
same,"(6R)-5,10-CH2-THF hemisulfate remaining","[3]; 18 months, listed as (6R)-5,10-CH2-THF hemisulfate (batch 2)",99.4 % rel.
same,"(6R)-5,10-CH2-THF hemisulfate remaining","[3]; 18 months, listed as (6R)-5,10-CH2-THF hemisulfate (batch 3)",99.0 % rel.
same,"(6R)-5,10-CH2-THF hemisulfate remaining","[3]; 24 months, listed as (6R)-5,10-CH2-THF hemisulfate (batch 1)",99.4 % rel.
same,"(6R)-5,10-CH2-THF hemisulfate remaining","[3]; 24 months, listed as (6R)-5,10-CH2-THF hemisulfate (batch 2)",99.4 % rel.
same,"(6R)-5,10-CH2-THF hemisulfate remaining","[3]; 24 months, listed as (6R)-5,10-CH2-THF hemisulfate (batch 3)",99.0 % rel.
same,"(6R)-5,10-CH2-THF hemisulfate remaining","[3]; 36 months, listed as (6R)-5,10-CH2-THF hemisulfate (batch 1)",98.5 % rel.
same,"(6R)-5,10-CH2-THF hemisulfate remaining","[3]; 36 months, listed as (6R)-5,10-CH2-THF hemisulfate (batch 2)",99.0 % rel.
same,"Stability over a long period of time compared to (6R)-5,10-CH2-THF sulfate",[4],much more stable
same,Safety at highest dose-level administered,rats,safe
same,Safety at highest dose-level administered,dogs,safe
same,Safety for patients,patients,safe
same,Decomposition temperature (TG-FTIR),[5],above 210 °C
